# From patent US12398097B2, “WDR5-MYC inhibitors” (Vanderbilt University, priority 2019, dated 2025)
# Target: WDR5 (Homo sapiens, UniProt P61964)
# Assay: Competition-based fluorescence polarization anisotropy assay
# Settings: binding to WDR5; displacement of FITC-labeled small molecule probe (analogous to Example J2 or HCH-25) or peptide probe FITC-AHx-SEEEIDVVSV; pH 6.0; Ki converted from IC50
# Method: Compounds of the present invention were assessed for their ability to bind to WDr5 using a competition-based fluorescence polarization anisotropy assay, similar to the method previously described. […] Fluorescence polarization measurements were performed in 384-well plates (Greiner Bio One) using a Cytation 3 plate reader (BioTek). Fluorescein isothiocyanate (FITC)-labeled peptide probe ([…]) was purchased from GenScript USA Inc and used without further purification. […] The assay buffer contained 200 mM phosphate, 300 mM NaCl, and 0.5 mM TCEP and 0.1% Chaps at pH 6.0. […] This was converted into a binding dissociation constant (Ki value) according to the formula: […] Data shown in the table below represents a K; determined from this method for each Example, using either a fluorescently labeled small molecule probe analogous to Example J2 or Example HCH-25, or the peptide probe described above, in the assay.
row,Ki [nM],Compound
1,90,"CS(=O)(=O)c1cc(C(F)(F)F)cc(NS(=O)(=O)c2cc(Br)ccc2O)c1O [Example S25, 5-Bromo-3-2-hydroxy-N-(2-hydroxy-3-(methylsulfonyl)-5-(trifluoromethyl)phenyl)benzenesulfonamide]"
2,90,CNC(=O)c1cc(S(F)(F)(F)(F)F)cc(NS(=O)(=O)c2cc(Br)cc3cccnc23)c1O [Example S67]
3,240,"CNC(=O)c1cc(C2(C#N)CCCCC2)cc(NS(=O)(=O)c2cc(Br)cc(Cl)c2O)c1O [Example J236, 3-((5-Bromo-3-chloro-2-hydroxyphenyl)sulfonamido)-5-(1-cyanocyclohexyl)-2-hydroxy-N-methylbenzamide]"
4,250,"C[C@H](NC(=O)c1cc(OC(F)(F)F)cc(NS(=O)(=O)c2cc(Br)ccc2O)c1O)C(N)=O (stereo in doubt) [HCH-48, N-(1-Amino-1-oxopropan-2-yl)-3-((5-bromo-2-hydroxyphenyl)sulfonamido)-2-hydroxy-5-(trifluoromethoxy)benzamide]"
5,460,"CCc1cc(Br)cc(S(=O)(=O)Nc2cc(Cl)cc(C(=O)O)c2O)c1O [HCH-11, 3-((5-Bromo-3-ethyl-2-hydroxyphenyl)sulfonamido)-5-chloro-2-hydroxybenzoic acid]"
6,1420,"O=C1CCCN1c1cc(Cl)cc(NS(=O)(=O)c2cc(Br)cc(Cl)c2O)c1 [NE13, 5-Bromo-3-chloro-N-(3-chloro-5-(2-oxopyrrolidin-1-yl)phenyl)-2-hydroxybenzenesulfonamide]"
7,790,"O=C(NCC(F)F)c1cc(Cl)cc(NS(=O)(=O)c2cc(Br)ccc2O)c1O [Example J39, 3-((5-Bromo-2-hydroxyphenyl)sulfonamido)-5-chloro-N-(2,2-difluoroethyl)-2-hydroxybenzamide]"
8,400,"O=C(NC1CC(F)(F)C1)c1cc(Cl)cc(NS(=O)(=O)c2cc(Br)ccc2O)c1O [Example J38, 3-((5-Bromo-2-hydroxyphenyl)sulfonamido)-5-chloro-N-(3,3-difluorocyclobutyl)-2-hydroxybenzamide]"
9,210,"COCCNC(=O)c1cc(C2CC2)cc(NS(=O)(=O)c2cc(Br)cc(Cl)c2O)c1F [Example J157, 3-((5-Bromo-3-chloro-2-hydroxyphenyl)sulfonamido)-5-cyclopropyl-2-fluoro-N-(2-methoxyethyl)benzamide]"
10,90,"O=C(O)c1cc(Cl)cc(NS(=O)(=O)c2cc(Br)ccc2O)c1O [Example J1, 3-((5-Bromo-2-hydroxyphenyl)sulfonamido)-5-chloro-2-hydroxybenzoic acid]"
11,850,"N#CC1(c2cc(NS(=O)(=O)c3cc(Br)ccc3O)c(O)c(C(=O)NCC3CCCCO3)c2)CCC1 (stereo not drawn) [Example J229, 3-((5-Bromo-2-hydroxyphenyl)sulfonamido)-5-(1-cyanocyclobutyl)-2-hydroxy-N-((tetrahydro-2H-pyran-2-yl)methyl)benzamide]"
12,550,"O=S(=O)(Nc1cc(OC(F)(F)F)ccc1O)c1cc(Br)ccc1O [HCH-3-48-1, 5-Bromo-2-hydroxy-N-(2-hydroxy-5-(trifluoromethoxy)phenyl)benzenesulfonamide]"
13,460,"O=C(N[C@H]1CCOC1)c1cc(OC(F)(F)F)cc(NS(=O)(=O)c2cc(Br)ccc2O)c1O [Example J168, (S)-3-((5-Bromo-2-hydroxyphenyl)sulfonamido)-2-hydroxy-N-(tetrahydrofuran-3-yl)-5-(trifluoromethoxy)benzamide]"
14,11700,"CCCc1cc(Br)cc(S(=O)(=O)Nc2cc(Cl)cc([N+](=O)[O-])c2O)c1O [NE10, 5-Bromo-N-(5-chloro-2-hydroxy-3-nitrophenyl)-2-hydroxy-3-propylbenzenesulfonamide]"
15,5170,"CC(C)[C@@H](C)Nc1ccc(Br)cc1S(=O)(=O)Nc1cc(C2CC2)cc(C(=O)O)c1O [Example J75, (R)-3-((5-Bromo-2-((3-methylbutan-2-yl)amino)phenyl)sulfonamido)-5-cyclopropyl-2-hydroxybenzoic acid]"
